# Reference: patent publication US20110269790A1, “NOVEL THIENOPYRIDINES AS PHARMACOLOGICALLY ACTIVE AGENTS” (priority 2009, published 2011)
# How the values were obtained:
# IL-1β [1] = assay: IL-1β in paw tissue and serum, collagen induced arthritis; format: in vivo, rat; details: for Inhibition of IL-1β in paw tissues: collagen induced study, day 24, 100 mg/kg/day; for Reduction of IL-1β levels in serum: collagen study, vs arthritic control
# Description: It is believed that these proinflammatory cytokines help to propagate a local or systemic inflammatory process, and to induce biosynthesis and secretion of metalloproteinases (MMPs) and osteoclasts that critically contribute to degradation of extracellular matrix and erosion of bone respectively (Burger et al., 1998; Gravallese and Goldring, 2000; Smolen and Steiner, 2003).
# On termination day blood samples were collected and serum was used for the estimation of Both TNF-α and IL-1β levels in FCA and Collagen induced studies. Both the parameters were determined using ELISA kits.
# rats = assay: Ulcerogenic assay; format: in vivo, rat; details: BN compounds 200 mg/kg oral, Indomethacin 30 mg/kg; for Ulcer Score: arbitrary scale 0 (no lesions) to 4 (mucosa full of lesions); for Ulcer Incidence: fasted rats, six hours after dosing, n=4
# Description: The method of Cashin et al., (1979) was employed. Food was withheld from the animals for 18 hours prior to the experiment. The fasted animals (n=4) received the compounds BN-4, BN-14 and BN-16 as gum acacia suspension by oral route at the dose of 100,200 mg/kg. Indomethacin control animals received the drug at the dose of 30 mg/kg. Six hours later, rats were killed and the stomachs removed and open along the lesser curvature. The opened stomach was washed with normal saline and observed for ulceration. Lesions on the mucosal surface was scored according to arbitrary scale: 0 No lesion; 0.5=hyperemia; 1=one or two lesions; 2=severe lesions; 3=very severe lesions; 4=Mucosal full of lesions (Bani et al., 2000). […] But indomethacin group animals show severe ulceration in stomach portion. More importantly, gastric ulcer, which is a common side effect of NSAIDS, was totally absent in stomach of compound treated rat group. Since enhanced leukotrine production plays a role in development of gastrointestinal damage from cyclooxygenase inhibition by NSAIDS (Rainsford et al., 1993; Gyomber et al., 1996) and all the compounds have shown potent inhibitory action on 5-LOX inhibition (Arachidonic induced paw edema model) along with cox inhibition (Carrageenan induced paw edema model), the gastric ulcer sparing effect of compounds may be partly due to their effect on 5-LOX inhibition.
# [2] = Acute oral toxicity, main study in rats; details: both sexes, Albino Wistar, rat, in vivo, single oral dose, read-out: Maximum tolerated dose
# Description: (§1) In the preliminary sighting study, the effect of various dosed administered to single animals of each sex was investigated in a sequential manner. The sighting study generally yields information on the dose-toxicity relationship including an estimate of the minimum lethal dose. In the main study, the test article is administered to groups of 5 males and 5 female animals at one of the fixed doses (5, 50, 500 and 2000 mg/Kg). The dose is derived from the sighting study. It is immediately below that which is expected to result in mortality. If evident toxicity is not seen at the chosen dose level, the substance should be retested at the next higher dose level. If at the initial dose level, animals die, or a severe toxicity reaction requires removal of animals from the study for animal welfare reasons, the substance is retested at the next lower dose level. Consideration of data from the both sighting study and the main study enabled a judgment to be made on determination of maximum tolerated dose.
# (§2) At least 10 animals (5 males and 5 females) for each species were used for dose level in this study. Animals were fasted overnight and test articles were administered as 1% gum acacia suspension orally. The dose used in this study is selected from one of four levels 5 mg/kg, 50 mg/kg, 500 mg/kg and 2000 mg/kg i.e. the dose that produced evident toxicity but not mortality in sighting study. […] Different biochemical and hematology parameters observed on “0’ day and on termination day .During main study physical parameters like feed consumption and body weight increase were also recorded. 5 males and females were taken, and toxicity study conducted for the compounds. […] Hematology and biochemical parameters were well and within normal range when compared with 0 day in rats and mice. Based on above observations synthetic compounds were safe upto 2000 mg/kg.
# IL-1β [3] = assay: IL-1β assay in murine macrophage cell line; format: cell-based, mouse; details: 50, 25, 12.5 μg/ml with LPS
# Description: Cell Culture and Treatment: The RAW 264.7 (mouse macrophages, national center for cellular sciences) cells were grown in plastic T-25 culture flask in Dulbeccos modified eagles medium (DMEM) without phenol red supplemented with 10% heat activated serum (heating at 57° C. for 30 minutes, 100 μg per ml penicillin, 200 μg per ml streptomycin, 2 mmol L-glutamine, 1% antibiotic/Anti mycotic solution (GIBCO/SRL) under 5% co2 with 85% relative humidity at 37° C. After 2-3 days cells were removed from the culture flask by tripsinizing the cells with Trypsin EDTA solution. Cell count and viability was performed using a standard Trypan blue dye exclusion method. The cell concentration was adjusted to 1×10^5 cells per ml in each well with the same media in the 12 well plates. After 24 hrs incubation the media was removed from each well replaced with a fresh one containing different concentrations (50 μg, 25 μg, 12.5 μg) of the synthetic compounds BN-4, BN-14 and BN-16 along with 10 μg/ml LPS, where as normal control (PBS) and positive controls (Dexa, Roli) LPS (10 μg/ml), were added. 200 μl of media from each well was collected at 6 hrs for the estimation of TNF-α and after 24 hrs for Nitric Oxide respectively. The adherent cells, which remained after removing the media was subjected to […] for determining the cytotoxicity of compounds at selected concentrations
# To determine the mechanism of action all test compounds were screened for invitro anti-inflammatory methods, which include TNF-a and IL-1b and Nitric Oxide. […] TNF-a is a pleiotropic cytokine, which plays a critical role in both acute and chronic inflammation (Holtzmann et al., 2002). Several inflammagens have the ability of inducing the synthesis of TNF-a. Formation of a number of small molecular mediators of inflammation is linked with TNF-a and contributes to the range of mediators that critically control inflammation. TNF-a facilitates inflammatory cell infiltration by promoting the adhesion of neutrophils and lymphocytes to endothelial cells (Dinarello, 1997).
# nitric oxide = assay: Nitric oxide inhibition assay, sodium nitroprusside method; details: Griess reagent, vs control
# [4] = Acute oral toxicity, main study in mice; details: both sexes, mouse, in vivo, single oral dose, read-out: Maximum tolerated dose
# Description: as §1, §2
smiles,measurement,setting,value
"Cc1sc2nc3c(c(N)c2c1C)CCCC3 [BN-2, 2,3-dimethyl-5,6,7,8-tetrahydrothieno[2,3-b]quinolin-4-amine]",melting point,,210 °C
"Nc1c2c(nc3sc4c(c13)CCC4)CCCCC2 [BN-16, 1,2,3,6,7,8,9,10-Octahydrocyclohepta[b]cyclopenta[4,5]thieno[3,2-e]pyridine-11-amine]",Inhibition of IL-1β in paw tissues,IL-1β [1],moderate inhibition (p<0.05)
same,Reduction of IL-1β levels in serum,IL-1β [1],more significantly (p<0.01) reduced
same,Ulcer Score,rats,0.25 ± 0.12
same,Ulcer Incidence,rats,0/4
same,MTD at 14 days,[2],> 2000 mg/kg
same,Production of IL-1β from murine macrophage cell line,IL-1β [3],inhibitory effect
same,NO release in Sodium Nitroprusside method,nitric oxide,significantly inhibited
same,MTD at 14 days,[4],> 2000 mg/kg
"COc1ccc2c(c1)c(CC(=O)O)c(C)n2C(=O)c1ccc(Cl)cc1 [Indomethacin, reference compound]",Inhibition of IL-1β in paw tissues,IL-1β [1],moderate inhibition (p<0.05)
same,Reduction of IL-1β levels in serum,IL-1β [1],moderate inhibition (p<0.05)
same,Ulcer Score,rats,2.25 ± 0.41
same,Ulcer Incidence,rats,4/4
"Nc1c2c(nc3sc4c(c13)CCCC4)CCC2 [BN-5, 2,3,6,7,8,9-Hexahydro-1H-benzo[4,5]thieno[2,3-b]cyclopenta[e]pyridin-10-amine]",melting point,,221 °C
"Cc1sc2nc3c(c(N)c2c1C)CCC3 [BN-1, 2,3-dimethyl-6,7-dihydro-5H-cyclopenta[b]thieno[3,2-e]pyridin-4-amine]",melting point,,231 °C
"CC1CCc2c(nc3sc4c(c3c2N)CCC4)C1 (stereo not drawn) [BN-15, 7-Methyl-2,3,6,7,8,9-hexahydro-1H-cyclopenta[4,5]thieno[2,3-b]quinolin-10-amine]",melting point,,263.2 °C
"Nc1c2c(nc3sc4c(c13)CCCCC4)CCC2 [BN-18, 1,2,3,6,7,8,9,10-Octahydrocyclohepta[4,5] thieno[2,3-b]cyclopenta [e]pyridin-11-amine]",melting point,,255 °C
"Nc1c2c(nc3sc4c(c13)CCC4)CCCCCC2 [BN-17, 2,3,6,7,8,9,10,11-Octahydro-1H-cycloocta [b]cyclopenta[4,5]thieno[3,2-e]pyridin-12-amine]",melting point,,256 °C
"Cc1sc2nc3c(c(N)c2c1C)CCCCC3 [BN-4, 2,3-dimethyl-6,7,8,9-tetrahydro-5H-cyclohepta[b]thieno[3,2-e]pyridin-4-amine]",Inhibition of IL-1β in paw tissues,IL-1β [1],more significant inhibition (p<0.01)
same,Reduction of IL-1β levels in serum,IL-1β [1],more significantly (p<0.01) reduced
same,MTD at 14 days,[2],> 2000 mg/kg
same,Production of IL-1β from murine macrophage cell line,IL-1β [3],inhibitory effect
same,NO release in Sodium Nitroprusside method,nitric oxide,significantly inhibited
same,MTD at 14 days,[4],> 2000 mg/kg
"Nc1c2c(nc3sc4c(c13)CCC4)CCC2 [BN-13, 1,2,3,6,7,8-hexahydrocyclopenta [b]cyclopenta[4,5] thieno[3,2-e]pyridin-9-amine]",melting point,,245 °C
"Nc1c2c(nc3sc4c(c13)CCC4)CCCC2 [BN-14, 2,3,6,7,8,9-Hexahydro-1H-cyclopenta[4,5]thieno[2,3-b]quinolin-10-amine]",Inhibition of IL-1β in paw tissues,IL-1β [1],more significant inhibition (p<0.01)
same,Reduction of IL-1β levels in serum,IL-1β [1],moderate inhibition (p<0.05)
same,Ulcer Score,rats,0.37 ± 0.10
same,Ulcer Incidence,rats,¼
same,MTD at 14 days,[2],1060 mg/kg
same,Production of IL-1β from murine macrophage cell line,IL-1β [3],inhibitory effect
same,NO release in Sodium Nitroprusside method,nitric oxide,significantly inhibited
same,MTD at 14 days,[4],1250 mg/kg
